This is an account of results in patent EP0087750B2, “Amino acid preparations containing glutaminic residues” (Kabi Pharmacia GmbH, priority 1982, dated 1994).

One data set in a line: physchem. It counts as physicochemical. Conditions: water. An excerpt: (§1) Es wurde nun erkannt, daß das Glutamin als an der α-Aminogruppe durch α-Aminoacylreste substituiertes Derivat, d. h. in Form der Tri- oder Dipeptide des Glutamins dem Organismus, insbesondere durch Infusionslösungen, zugeführt werden kann, ohne Gefahr der Bildung des toxischen Cyclisierungsprodukts. Diese Di- und Tripeptide des Glutamins mit anderen Aminosäuren, wie Glycin, Alanin, Leucin, Isoleucin oder Valin, sind sehr leicht wasserlöslich, so daß sie gegebenenfalls in relativ hoher Konzentration in den Infusionslösungen angewendet werden können, wobei gleichzeitig dem Organismus auch andere Aminosäuren zugeführt werden, ohne daß dadurch osmotische Problem auftreten. Die Löslichkeit beispielsweise des Gly-Ala-Gln beträgt 680 g/L H₂O, während die freien Aminosäuren eine geringere Löslichkeit besitzen: […]: 225 g/L H₂O; Alanin: 158 g/L H₂O und Glutamin: […] H₂O.

A short description of the next data set: Solubility in water. It counts as physicochemical.
Text: as §1

The subject of data set [1] is Hydrolasen in den Geweben des Organismus. The note with it: in vivo, cited from earlier work.

≈ marks a conversion by molar mass, not a printed value. Residues, ends and D or L forms follow the SMILES beside them.

Compound `C[C@H](N)C(=O)O` [Alanin] came in with a solubility in “physchem” of 158 mg/mL (≈ 1770 mM).

As for `NC(=O)CC[C@H](N)C(=O)O` [Glutamin], in “physchem”, the solubility came out at 325 mg/mL (≈ 2220 mM).

Compound `C[C@H](NC(=O)CN)C(=O)N[C@@H](CCC(N)=O)C(=O)O` [Gly-Ala-Gln, Glycyl-L-alanyl-L-glutamin] (H-Gly-Ala-Gln-OH) yielded a Löslichkeit in “Solubility in water” of 680 g/L H₂O.

In “physchem”, Glycerin showed a Löslichkeit of 225 g/L H₂O.

For the compound Glycyl-leucin, the “Elimination aus dem Plasma” value in data set [1] (iv) is given as “schnell aus dem Plasma eliminiert”. Also, in data set [1], the “Spaltung durch Hydrolasen in den Geweben” value is recorded as “gut gespalten”.
